Paper PMC10205807, “Cross-species comparison in nonclinical pharmacokinetics of lenvatinib by a simple HPLC with ultraviolet detection” (Scientific Reports, 2023)

Tests used:
[1] = tested on: plasma protein; assay: in vitro plasma protein binding, monkeys; format: in vitro ADME
[2] = PK study in mice (intravenous and oral); format: in vivo
Method: Female BALB/cAnNCrj-nu/nu mice were purchased from Charles River Laboratories (Kanagawa, Japan) and were acclimatized for 9 days prior to use in the PK study. At the dosing day, 7-week-old mice were used. E7080 was dissolved in 5% glucose injection to make a 0.3 mg/mL solution for intravenous administration and dissolved in water to make 0.3, 1, and 3 mg/mL solutions for oral administrations. Lenvatinib was intravenously administered at the dose of 3 mg/kg via the tail vein using a disposable syringe and oral administration was performed by gastric gavage at the doses of 3, 10, and 30 mg/kg at the dosing volume of 10 mL/kg (n = 3/time point/dose). Whole blood samples were drawn from the vena cava using heparinized syringes at 5, 15, and 30 min, and 1, 2, 4, 6, 8, 12, and 24 h postdose. Plasma samples were obtained by centrifugation and aliquots of plasma were transferred to a tube and stored below − 15 °C until assayed.
PK parameters of lenvatinib were estimated by model independent analysis using a WinNonlin program (Version 4.1, Pharsight Corporation, Mountain View, CA). The time to reach the maximum plasma concentration (Tmax) and the maximum plasma concentration (Cmax) values were obtained directly from the plasma concentration data. Terminal half-life (T1/2) was calculated by ln2/ke, where ke is the slope of the regression line that fits the portion of the terminal phase (at least three time points) in the log-linear concentration–time curve. AUC0–t and AUMC0–t, the area under the concentration–time curves and the area under the first moment curve, from time = zero to time = t, respectively, were calculated using the lenvatinib concentrations in plasma by the linear/log trapezoidal method. AUC0–inf was calculated by AUC0–t + Ct/ke, and AUMC0–inf was AUMC0–t + Ct × t/ke + Ct/(ke)^2, where Ct is the last measurable concentration at time = t. The plasma concentration at time zero for the intravenous dose was extrapolated, while zero was used for the oral doses. Mean residence time (MRT), total plasma clearance (CLtot) and the volume of distribution at steady state (Vdss) were calculated by AUMC0–inf/AUC0–inf, Dose/AUC0–inf and CLtot × MRT, respectively. Oral bioavailability (F) was estimated by comparing dose-normalized AUC0–inf after oral (AUC0–inf.po) and intravenous (AUC0–inf.iv) administration as follows: F (%) = (AUC0–inf.po/AUC0–inf.iv) × 100.

[3] = female, BALB/cAnNCrj-nu/nu, mouse, plasma, intravenous 3 mg/kg
[4] = female, BALB/cAnNCrj-nu/nu, mouse, plasma, oral 3 mg/kg
[5] = female, BALB/cAnNCrj-nu/nu, mouse, plasma, oral 10 mg/kg
[6] = female, BALB/cAnNCrj-nu/nu, mouse, plasma, oral 30 mg/kg

Compound: COc1cc2nccc(Oc3ccc(NC(=O)NC4CC4)c(Cl)c3)c2cc1C(N)=O [lenvatinib, Lenvatinib]
- fraction unbound at 0.3 μg/mL ([1]; monkey plasma, 0.3 μg/mL): 0.039
- fraction unbound ([1]; monkey, plasma, monkeys, 0.3–30 μg/mL, read-out: average fp (unbound fraction in plasma)): 0.0394
- CLint (hepatic intrinsic clearance) ([2]; estimated from oral PK, Fa and Fg assumed unity, BW 0.02 kg): 325 mL/h
- AUC(0-inf) [2, 3]: 8690 ng·h/mL
- MRT [2, 3]: 2.07 h
- C0 ([2]; female, BALB/cAnNCrj-nu/nu, mouse, plasma, intravenous 3 mg/kg, extrapolated): 8290 ng/mL
- clearance ([2]; female, BALB/cAnNCrj-nu/nu, mouse, plasma, intravenous 3 mg/kg, read-out: CLtot (converted)): 5.75 mL/min/kg
- Vd ([2]; female, BALB/cAnNCrj-nu/nu, mouse, plasma, intravenous 3 mg/kg, read-out: Vdss): 0.714 L/kg
- half-life ([2]; female, BALB/cAnNCrj-nu/nu, mouse, plasma, iv, 3 mg/kg, intravenous 3 mg/kg): 2.05 h
- AUC(0-inf) [2, 4]: 5600 ng·h/mL
- Cmax [2, 4]: 1970 ng/mL
- MRT [2, 4]: 3.28 h
- Tmax [2, 4]: 0.5 h
- bioavailability ([2]; female, BALB/cAnNCrj-nu/nu, mouse, plasma, oral 3 mg/kg vs intravenous 3 mg/kg, read-out: F (oral bioavailability)): 64.4%
- AUC(0-inf) [2, 5]: 27700 ng·h/mL
- Cmax [2, 5]: 10500 ng/mL
- MRT [2, 5]: 3.01 h
- Tmax [2, 5]: 0.5 h
- AUC(0-inf) [2, 6]: 118000 ng·h/mL
- Cmax [2, 6]: 31300 ng/mL
- MRT [2, 6]: 3.29 h
- Tmax [2, 6]: 1 h
- half-life ([2]; female, BALB/cAnNCrj-nu/nu, mouse, plasma, po, 3 mg/kg, oral 3 mg/kg): 2.09 h
- half-life ([2]; female, BALB/cAnNCrj-nu/nu, mouse, plasma, po, 10 mg/kg, oral 10 mg/kg): 1.74 h
- half-life ([2]; female, BALB/cAnNCrj-nu/nu, mouse, plasma, po, 30 mg/kg, across 3, 10, and 30 mg/kg): 1.74 to 2.09 h
- half-life ([2]; female, BALB/cAnNCrj-nu/nu, mouse, plasma, po, 30 mg/kg, oral 30 mg/kg): 1.85 h
